Reference: US12162881B2, “Forms and compositions of inhibitors of JAK2” (Ajax Therapeutics, Inc., priority 2021, dated 2024)
One block for each molecule: values may come before it.

Tests used:
[1] = Variable relative humidity XRPD (VRH-XRPD); assay type: physicochemical
Procedure: XRPD patterns were collected with a PANalytical X'Pert PRO MPD diffractometer using an incident beam of Cu Kα radiation produced using a long, fine-focus source and a nickel filter. The diffractometer was configured using the symmetric Bragg-Brentano geometry. Data were collected and analyzed using Data Collector software v. 5.5. Prior to the analysis, a silicon specimen (NIST SRM 640f) was analyzed to verify the observed position of the Si 111 peak is consistent with the NIST-certified position. A specimen of the sample was packed in a nickel-coated copper well. Antiscatter slits (SS) were used to minimize the background generated by air. Soller slits for the incident and diffracted beams were used to minimize broadening from axial divergence. Diffraction patterns were collected using a scanning position-sensitive detector (X'Celerator) located 240 mm from the sample and Data Collector software v. 5.5.
An Anton Paar temperature-humidity chamber (THC) was used while collecting in-situ XRPD patterns as a function of humidity. The temperature of the specimen was changed with a Peltier thermoelectric device located directly under the specimen holder and monitored with a platinum-100 resistance sensor located in the specimen holder. The thermoelectric device was powered and controlled by an Anton Paar TCU 50 interfaced with Data Collector. The humidity was generated with an RH-200 manufactured by VTI Inc. and carried by a flow of nitrogen gas. The humidity was monitored by a HygroClip sensor manufactured by Rotronic located next to the specimen inside the THC.
VRH-XRPD analysis was conducted to help determine water activity boundary for the solid-state conversion between hydrated Form A and anhydrous Form B. This method was utilized due the observed high tendency of Compound 1 to form solvates, which precluded the use of solvent-mediated approach.
Overall, two VRH-XRPD experiments were conducted to qualitatively evaluate RH conditions leading to predominance of Form A over Form B and vice versa. The kinetic component was not assessed.
The first VRH-XRPD experiment was conducted with a goal of observing dehydration of hydrated Form A. An initial XRPD scan was, therefore, acquired on Form A equilibrated in-situ at ambient RH for 45 minutes, which at the time of the analysis was ˜30%. The XRPD pattern from this scan was consistent with Form A (FIG. 39, top).
XRPD patterns were collected throughout the course of the experiment, each with a 10 minute scan.
XRPD patterns were collected throughout the course of the experiment, each with a 10 minute scan. The XRPD patterns remained Form B until the RH reached approximately 60% RH, where Form A became the primary phase with some Form B remaining (FIG. 41, top two spectra). Further decrease of Form B was observed through the remainder of the 60% RH hold at which point the experiment ended (FIG. 41, bottom two spectra). Complete conversion to Form A from Form B was not observed under these conditions.

[2] = Disproportionation of Compound 2 (HCl salt) stirred in water; assay type: physicochemical; details: Form A obtained by disproportionation of Compound 2 in water (Example 11)
Procedure: An exemplary procedure for preparing Compound 1 Form A is as follows: Compound 1 Lot II (459.1 mg) was slurried in THF (4 mL). Concentrated HCl (154 μL, 2 equiv.) was added to the slurry. The off-white slurry rapidly changed to a yellow slurry. The slurry was stirred at ambient temperature for 1 day. Solids were collected by vacuum filtration and briefly dried under vacuum. The yellow material, assumed to be an HCl salt, was collected by vacuum filtration. The material (543.2 mg) was then suspended in H2O (5 mL) and stirred at ambient temperature for 2 days. Pale yellow solids were collected by vacuum filtration but appeared to still contain some HCl salt by XRPD. Solids were re-slurried in H2O (1 mL) at ambient temperature for additional 3 days. The off-white solids were collected by vacuum filtration and dried on filter until solids were no longer visibly damp.

[3] = Drying experiments of solvated Compound 1 materials (vacuum oven, XRPD); assay type: physicochemical; details: vac., RT, 1 d
Procedure: Drying experiments: Damp and solvated Compound 1 materials were placed in vacuum ovens set to ambient temperature or 80° C. for 1 day. Dried solids were analyzed by XRPD.

[4] = molecular target: T1, JAK2 (JH1domain-catalytic, Y1007F,Y1008F) kinase (Homo sapiens, UniProt O60674, Y1007F/Y1008F); assay: JAK2 Binding Assay; details: Compound 1 as prepared by Example 1
T1 construct: JAK2 (JH1domain-catalytic, Y1007F,Y1008F) kinase was expressed as N-terminal fusion; made in house; host or cells: transiently transfected HEK293 cells
Procedure: JAK2 (JH1domain-catalytic, Y1007F,Y1008F) kinase was expressed as N-terminal fusion to the DNA binding domain of NFkB in transiently transfected HEK293 cells and subsequently tagged with DNA for qPCR detection. Streptavidin-coated magnetic beads were treated with biotinylated small molecule ligands for 30 minutes at room temperature to generate affinity resins for kinase assays. The liganded beads were blocked with excess biotin and washed with blocking buffer (SeaBlock (Pierce), 1% BSA, 0.05% Tween 20, 1 mmol/L DTT) to remove unbound ligand and to reduce nonspecific phage binding. Binding reactions were assembled by combining kinases, liganded affinity beads, and test compounds in 1× binding buffer (1×PBS, 0.05% Tween 20, 0.1% BSA, 1 mmol/L DTT). Test compound was prepared as 111× stocks in 100% DMSO and directly diluted into the assay wells. All reactions were performed in polypropylene 384-well plates in a final volume of 0.02 mL. The assay plates were incubated at room temperature with shaking for 1 hour and the affinity beads were washed with wash buffer (1×PBS, 0.05% Tween 20). The beads were then re-suspended in elution buffer (1×PBS, 0.05% Tween 20, 0.5 μmol/L non-biotinylated affinity ligand) and incubated at room temperature with shaking for 30 minutes. The kinase concentration in the eluate was measured by qPCR.

[5] = Relative humidity jar experiments (XRPD); assay type: physicochemical
Procedure: Relative humidify jar experiments: Solid Compound 1 was placed in relative humidity jars containing saturated solutions of various salts to maintain a desired relative humidity level at 25° C. One sample of Compound 1 was placed in a jar containing P205 in an effort to maintain 0% RH.

T1 sequence (O60674 849-1124 Y1007F/Y1008F limits assumed): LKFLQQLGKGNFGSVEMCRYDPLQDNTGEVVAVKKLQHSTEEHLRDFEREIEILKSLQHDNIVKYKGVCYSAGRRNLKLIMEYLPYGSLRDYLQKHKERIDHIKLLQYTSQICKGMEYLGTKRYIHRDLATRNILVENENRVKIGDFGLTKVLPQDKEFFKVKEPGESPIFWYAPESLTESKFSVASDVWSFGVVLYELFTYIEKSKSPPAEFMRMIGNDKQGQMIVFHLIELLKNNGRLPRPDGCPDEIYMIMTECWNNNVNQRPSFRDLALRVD

RH at which a small amount of Form B became visible ([1]; Experiment 1, RH incrementally decreased from ~85%): approximately 21 % RH
RH at which Form A was no longer visible ([1]; Experiment 1, decreasing RH): ~5 % RH
RH at which Form B became the predominant phase ([1]; Experiment 1, decreasing RH): 11 % RH
RH at which dehydration is expected to begin ([1]; VRH-XRPD and DVS data combined): 20 % RH
Form change on hold under nitrogen stream ([1]; overnight (17 h) hold under nitrogen stream (~0% RH)): converted to Form B
Stability relative to Compound 2 [2]: superior stability
SMILES: CC(=O)Nc1cc(Oc2cnc3nc(Nc4cc(C(F)(F)F)cn(C)c4=O)n(C)c3c2C#N)ccn1 [Compound 1 Form A, N-(4-((7-cyano-1-methyl-2-((1-methyl-2-oxo-5-(trifluoromethyl)-1,2-dihydropyridin-3-yl)amino)-1H-imidazo[4,5-b]pyridin-6-yl)oxy)pyridin-2-yl)acetamide]

XRPD Result after drying ([3]; listed as Form F): Form F
SMILES: CC(=O)Nc1cc(Oc2cnc3nc(Nc4cc(C(F)(F)F)cn(C)c4=O)n(C)c3c2C#N)ccn1 [Compound 1 Form F, N-(4-((7-cyano-1-methyl-2-((1-methyl-2-oxo-5-(trifluoromethyl)-1,2-dihydropyridin-3-yl)amino)-1H-imidazo[4,5-b]pyridin-6-yl)oxy)pyridin-2-yl)acetamide]

XRPD Result after drying ([3]; listed as Form G): Form B + peaks (some disorder)
SMILES: CC(=O)Nc1cc(Oc2cnc3nc(Nc4cc(C(F)(F)F)cn(C)c4=O)n(C)c3c2C#N)ccn1 [Compound 1 Form G, N-(4-((7-cyano-1-methyl-2-((1-methyl-2-oxo-5-(trifluoromethyl)-1,2-dihydropyridin-3-yl)amino)-1H-imidazo[4,5-b]pyridin-6-yl)oxy)pyridin-2-yl)acetamide]

Kd [4]: < 10 nM
XRPD Results after RH stress ([5]; 23% RH, RT, 6 d): B + minor A
XRPD Results after RH stress ([5]; 43% RH, RT, 6 d): A + B
XRPD Results after RH stress ([5]; 54% RH, RT, 6 d): A + B
XRPD Results after RH stress ([5]; P2O5 jar, 0% RH RT, 12 d): B + peaks
SMILES: CC(=O)Nc1cc(Oc2cnc3nc(Nc4cc(C(F)(F)F)cn(C)c4=O)n(C)c3c2C#N)ccn1 [Compound 1, N-(4-((7-cyano-1-methyl-2-((1-methyl-2-oxo-5-(trifluoromethyl)-1,2-dihydropyridin-3-yl)amino)-1H-imidazo[4,5-b]pyridin-6-yl)oxy)pyridin-2-yl)acetamide]
